From patent publication US10800792B2, “Inhibitors of Bruton's tyrosine kinase and method of their use” (JANSSEN PHARMACEUTICA NV, priority 2015, dated 2020) come the findings set out here.

Chain of unphosphorylated-BTK kinase domain (UP-BTK), GST-tagged human BTK (389-659aa) (Q06187 389-659): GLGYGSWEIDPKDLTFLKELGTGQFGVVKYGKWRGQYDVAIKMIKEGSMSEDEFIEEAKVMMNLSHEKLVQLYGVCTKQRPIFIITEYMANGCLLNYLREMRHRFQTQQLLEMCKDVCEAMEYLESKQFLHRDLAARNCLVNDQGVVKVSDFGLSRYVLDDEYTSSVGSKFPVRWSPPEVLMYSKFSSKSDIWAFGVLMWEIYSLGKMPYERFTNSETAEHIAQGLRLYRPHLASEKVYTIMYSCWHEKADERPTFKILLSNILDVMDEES

This assay deals with unphosphorylated-BTK kinase domain (UP-BTK), GST-tagged human BTK (389-659aa) (Homo sapiens (Human), UniProt Q06187). Kind of assay: BTK kinase Lanthascreen binding assay. The following applies: pIC50 = negative log of the IC50 in molar; 60 minutes incubation, 50 nM Tracer 236. The gist of the method:
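Lanthascreen competition binding; test compound vs fluorescent tracer on unphosphorylated BTK. Output: pIC50 (−log IC50, M).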
With `CN1CCC[C@@H](NC(=O)c2sc3nccc4c3c2NC(=O)N4c2ccc(Oc3ccccc3)cc2)C1` [Example 182, (R)—N-(1-Methylpiperidin-3-yl)-4-oxo-5-(4-phenoxyphenyl)-4,5-dihydro-3H-1-thia-3,5,8-triazaacenaphthylene-2-carboxamide], the “BTK_I_binding pIC50” value turned out to be 6.7.

`Cc1cc(OC2CC2)ccc1N1C(=O)Nc2c(C(=O)N[C@@H]3CCCN(C(=O)/C(C#N)=C/C4CC4)C3)sc3nccc1c23` [Example 185, (R,E)-N-(1-(2-Cyano-3-cyclopropylacryloyl)piperidin-3-yl)-5-(4-cyclopropoxy-2-methylphenyl)-4-oxo-4,5-dihydro-3H-1-thia-3,5,8-triazaacenaphthylene-2-carboxamide]: the “BTK_I_binding pIC50” value is 7.5.

`Cc1cc(Oc2ccccc2)ccc1N1C(=O)Nc2c(C(=O)N[C@H]3CN(C)C[C@@H]3F)sc3nccc1c23` [Example 186, N-((3S,4S)-4-Fluoro-1-methylpyrrolidin-3-yl)-5-(2-methyl-4-phenoxyphenyl)-4-oxo-4,5-dihydro-3H-1-thia-3,5,8-triazaacenaphthylene-2-carboxamide]: the “BTK_I_binding pIC50” value is listed as 6.8.

`Cc1cc(Oc2ccccc2)ccc1N1C(=O)Nc2c(C(=O)NC3CCCN(C)CC3)sc3nccc1c23` (stereo not shown) [Example 187, 5-(2-Methyl-4-phenoxyphenyl)-N-(1-methylazepan-4-yl)-4-oxo-4,5-dihydro-3H-1-thia-3,5,8-triazaacenaphthylene-2-carboxamide]: the “BTK_I_binding pIC50” value is on record as 6.7.

Turning to `COCC(C)(C)C(=O)N1CCC[C@@H](NC(=O)c2sc3nccc4c3c2NC(=O)N4c2ccc(Oc3ccccc3)cc2C)C1` [Example 188, (R)—N-(1-(3-Methoxy-2,2-dimethylpropanol)piperidin-3-yl)-5-(2-methyl-4-phenoxyphenyl)-4-oxo-4,5-dihydro-3H-1-thia-3,5,8-triazaacenaphthylene-2-carboxamide], the “BTK_I_binding pIC50” value was found to be 6.7.

Regarding `Cc1cc(Oc2ccccc2)ccc1N1C(=O)Nc2c(C(=O)NC3CCCN(C#N)CC3)sc3nccc1c23` (stereo not shown) [Example 189, N-(1-Cyanoazepan-4-yl)-5-(2-methyl-4-phenoxyphenyl)-4-oxo-4,5-dihydro-3H-1-thia-3,5,8-triazaacenaphthylene-2-carboxamide], the “BTK_I_binding pIC50” value is given as 6.6.

As to `COC[C@@H](OC)C(=O)N1CCC[C@@H](NC(=O)c2sc3nccc4c3c2NC(=O)N4c2ccc(Oc3ccccc3)cc2C)C1` [Example 190, N—((R)-1-((R)-2,3-Dimethoxypropanoyl)piperidin-3-yl)-5-(2-methyl-4-phenoxyphenyl)-4-oxo-4,5-dihydro-3H-1-thia-3,5,8-triazaacenaphthylene-2-carboxamide], the “BTK_I_binding pIC50” value is 7.0.

Turning to `Cc1cc(Oc2ccccc2)ccc1N1C(=O)Nc2c(C(=O)N[C@@H]3CCCN(C(=O)[C@@H]4CCNC4)C3)sc3nccc1c23` [Example 191, 5-(2-Methyl-4-phenoxyphenyl)-4-oxo-N—((R)-1-((R)-pyrrolidine-3-carbonyl)piperidin-3-yl)-4,5-dihydro-3H-1-thia-3,5,8-triazaacenaphthylene-2-carboxamide], the “BTK_I_binding pIC50” value was found to be 7.1.

Turning to `Cc1cc(Oc2ccccc2)ccc1N1C(=O)Nc2c(C(=O)NC3(CO)CCOCC3)sc3nccc1c23` [Example 192, N-(4-(Hydroxymethyl)tetrahydro-2H-pyran-4-yl)-5-(2-methyl-4-phenoxyphenyl)-4-oxo-4,5-dihydro-3H-1-thia-3,5,8-triazaacenaphthylene-2-carboxamide], the “BTK_I_binding pIC50” value is on record as 6.8.

Consider `CCOc1ccc(N2C(=O)Nc3c(C(=O)N[C@@H]4CCCN(C(=O)/C(C#N)=C/C5CC5)C4)sc4nccc2c34)c(C)c1` [Example 193, (R,E)-N-(1-(2-Cyano-3-cyclopropylacryloyl)piperidin-3-yl)-5-(4-ethoxy-2-methylphenyl)-4-oxo-4,5-dihydro-3H-1-thia-3,5,8-triazaacenaphthylene-2-carboxamide], for which the “BTK_I_binding pIC50” value was 7.3.
